{
  "source": "patent US20110152379A1",
  "about": "“COMPOSITION FOR CONTROL OF AGING AND/OR EXTENSION OF LIFE, CONTAINING DAPSONE AS ACTIVE INGREDIENT” (priority 2008, published 2011)",
  "key": {"C. elegans [1]": {"tested_on": "C. elegans", "assay": "Oxygen uptake rate of C. elegans (Clark-type oxygen electrode)", "type": "in vivo", "details": "C. elegans treated with DDS; FIG. 10", "protocol": "The oxygen uptake rate was measured by using the method disclosed in the theses (50, 51) using Clark-type oxygen electrode (782 Oxygen Meter, Strathkelvin Instruments, Glasgow, UK). […] Approximately 1500 C. elegans in 200 uL of S-basal buffer were added to Mitocell chamber with Clark-type oxygen electrode to measure the oxygen uptake rate for several minuets. A sample was carefully taken from the chamber and then twice homogenized at 5000 rpm for 20 seconds by using Precellys24 homogenizer with glass bead. The sample was centrifuged at 15000 g for 20 minutes and the protein in the supernatant was quantified by using BCA protein quantification kit."}, "C. elegans [2]": {"tested_on": "C. elegans", "assay": "Lifespan of C. elegans fed on E. coli cultured with dapsone", "type": "in vivo, Caenorhabditis elegans", "set-up": "Mean lifespan (Mean ± SE): unit not given beside the values", "protocol": "In order to identify the effect of dapsone on the extending of lifespan, the experiment was performed in the following order. At this time, since dapsone is not a water-soluble material, E. coli was cultured in the medium including dapsone and then was used as a feed for C. elegans. […] generation, and the experiment was performed as follows under the condition of 20° C. in order to provide the optimal growth environment: 1) A parent C. elegans of L4 stage was transferred to the medium containing dapsone and PABA, and the progeny of first generation was transferred to the new medium after four days to lay an egg for 4 to 5 hours. […] C. elegans, which […], was excluded from the statistical analysis. […] The significant difference of statistical average lifespan used Log-rank test."}, "NOX4": {"tested_on": "NOX4", "assay": "NOX4 mRNA level by RT-PCR in PQ-treated human diploid fibroblast", "type": "cell-based", "details": "1 mM PQ for 5 minutes, FIG. 26", "protocol": "The amount of NOX4 (HDF specific) mRNA, which is a source for generating a cytosolic superoxide anion, increased by PQ was measured. For FIG. 26B, it was quantitived as % rate as compared with a control (non-treated human diploid fibroblast).\nRNA of the human diploid fibroblast was isolated by using Trizol Reagent (MRC Cincinnati, USA), and NOX4 and GAPDH were measured through RT-PCR by using Biometra T Gradient PCR (Biometra, Goettingen, Germany) machine. A specific NOX primer; 5′-[…]-3′ (Forward Primer) and 5′-[…]-3′ (Reverse Primer); Primer for GAPDH 5′-[…]-3′ (Forward Primer) and 5′-[…]-3′ (Reverse Primer) were used as primers. DNA that was manipulated by PCR was isolated through 1.2% agarose gel electrophoresis, stained with EtBr to be visualized and then taken a photography that can be shown through UV."}, "H2O2": {"tested_on": "H2O2", "assay": "Hydrogen peroxide by Amplex Red assay in paraquat-treated C. elegans", "type": "in vivo", "details": "250 mM paraquat for 1 hour; FIG. 11", "method": "The effect of dapsone on ROS scavenging was measured by using Amplex Red hydrogen peroxide/peroxygenase detection kit (Molecular Probes, Eugene, Oreg.) [39] that were previously described in order to measure the effect of dapsone on ROS scavenging. Simply put, 150 C. elegans that fed only on PABA or fed on PABA and dapsone was treated with 250 mM of paraquat for 1 hour. 100 C. elegans were adjusted to be 50 ul at 96-well plate and then 50 ul of Amplex Red (200 uM) was added to each well. After maintaining at 22° C. for 90 minutes, the amount of hydrogen peroxide was measured at 540 nm of absorbance by using a plate reader (Tecan, infinite 200)."}, "pyruvate": {"tested_on": "pyruvate", "assay": "Pyruvate content in C. elegans (fluorescence-based assay kit)", "type": "in vivo", "details": "C. elegans that fed on DDS; FIG. 17A", "protocol": "The measurement of pyruvate content was performed by using Fluorescence-based assay kit (BioVision) was purchased according to its instructions. […] Three measurements were performed."}, "C. elegans [3]": {"tested_on": "C. elegans", "assay": "Vitality (movements) of worms at 23 days", "type": "in vivo", "details": "23 days after adult; FIG. 4", "from_the_text": "At this time, the arrows indicate the initial positions of worms."}, "pyruvate kinase": {"tested_on": "pyruvate kinase", "assay": "Pyruvate kinase activity in vivo (worms that fed on DDS)", "set-up": "species or system C. elegans", "details": "FIG. 16B", "protocol": "PK activity was analyzed through the decrease degree of absorbance at 340 nm by using the change result from pyruvate and NADH to lactate and NAD by lactate dehydrogenase (LDH). The pyruvate and ATP used for the above process were produced from phosphoenolpyruvate (PEP) and ADP by PK. The analysis in vitro was measured by adding directly DDS along with PK to the above reaction mixture and the analysis in vivo was measured by adding worms that fed on DDS.\nSamples were homogenized by rupturing C. elegans with glass bead Precellys 24 homogenizer, twice for 20 seconds, at 5000 rpm in a 100 mM potassium phosphate buffer, pH 7.6, at 37° C. A CHAPS was added to the homogenized sample to be 1% of the final concentration and then centrifuged at 15000 g for 20 minutes. The measurement of pyruvate kinase(PK) activity was performed at 37° C. by adding 300 uL of the reaction mixture contained 100 mM potassium phosphate buffer at pH 7.6 and 37° C., 100 mM MgSO4, 1.3 mM β-NADH, 5000 units/mL of lactate dehydrogenase (LDH), 2 mM adenosine diphosphate (ADP) and 17 mM phosphoenolpyruvate (PEP) into the sample. The change of oxidation degree of NADH was measured at 340 nm of absorbance. PK 1 unit was defined as the change into 1.0 umole of pyruvate per a minute at pH 7.6 and 37° C. […] Type I pyruvate kinase (Sigma) of rabbit muscle was used for in vitro experiment."}, "SOD2": {"tested_on": "SOD2", "assay": "Western blot of SOD2 amount in human diploid fibroblast", "type": "cell-based", "details": "various concentrations of DDS, FIG. 25B", "protocol": "Trolox that is well known as a water-soluble vitamin E was used as a positive control.\nThe isolated sample was transferred to a nitrocellulose and analyzed through Western Blot using MS601 (Total OXPHOS Complexes Detection Kit, MitoSciences, containing antibodies against SDH30 subunit of complex II (5 μg/ml), Core2 subunit of complex III (0.2 μg/ml), COXII subunit of complex IV (2 μg/ml), and subunit α of F1-ATPase of complex V (0.2 μg/ml)), PCKpan-p, PCKα/β-p, PKCδ-p (Phospho-PKC antibody Sampler Kit, Cell Signaling Technology), PKC α, PCKβ, PKCδ (Life Technologies), β-Actin (Sigma), and the like. The measurement was performed by using a horseradish […] secondary antibodies (Zymed) and ECL (Pierce). The results were shown through visualizing by using Autoradiographic film (Image Reader, LAS-3000Fujifilm, Japan)."}},
  "note": "Where “and” joins values, the source holds several entries; their conditions need not be identical. Equal entries are not always repeated.",
  "data": [
    {"smiles": "Nc1ccc(S(=O)(=O)c2ccc(N)cc2)cc1", "note": "[DDS, 4,4′-diaminodiphenylsulfone]", "values": [
      {"measurement": "oxygen uptake rate", "setting": "C. elegans [1]", "result": "meaningfully decreased"},
      {"measurement": "average lifespan and maximum lifespan compared with the control", "setting": "C. elegans [2]; DDS after L4-stage and during the whole life, FIG. 3A, B", "result": "significantly increased"},
      {"measurement": "Mean lifespan (Mean ± SE)", "setting": "C. elegans [2]; strain N2, OP50 + PABA + DDS (2 mM) after L4 stage, Figure 1B, four trials", "result": "23.04 ± 0.7 and 34.26 ± 0.8 and 23.76 ± 0.6 and 18.87 ± 0.4"},
      {"measurement": "Mean lifespan (Mean ± SE)", "setting": "C. elegans [2]; strain N2, OP50 + PABA + DDS (2 mM) in the whole life, Figure 1A, two trials", "result": "23.07 ± 0.5 and 24.31 ± 0.6"},
      {"measurement": "Mean lifespan (Mean ± SE)", "setting": "C. elegans [2]; strain N2, OP50 + PABA + DDS, Figure 3F, two trials", "result": "23.72 ± 0.7 and 19.74 ± 0.6"},
      {"measurement": "Mean lifespan (Mean ± SE)", "setting": "C. elegans [2]; strain N2, feeding OP50 + 0.5 mM DDS, Figure S7", "result": "22.03 ± 0.6"},
      {"measurement": "Mean lifespan (Mean ± SE)", "setting": "C. elegans [2]; strain N2, feeding OP50 + 1 mM DDS, Figure S7", "result": "22.20 ± 0.6"},
      {"measurement": "Mean lifespan (Mean ± SE)", "setting": "C. elegans [2]; strain N2, feeding folP + DDS (bacteria lacking folP), Figure S2, three trials", "result": "16.90 ± 0.3 and 17.43 ± 0.4 and 17.87 ± 0.4"},
      {"measurement": "Mean lifespan (Mean ± SE)", "setting": "C. elegans [2]; strain daf-16(cf1038), OP50 + PABA + DDS (2 mM), Figure 2A, two trials", "result": "15.69 ± 0.5 and 17.40 ± 0.3"},
      {"measurement": "Mean lifespan (Mean ± SE)", "setting": "C. elegans [2]; strain pyk-1(ok1754), OP50 + PABA + DDS, Figure 3F, two trials", "result": "21.92 ± 0.8 and 23.37 ± 0.6"},
      {"measurement": "NOX4 expression increased by PQ", "setting": "NOX4", "result": "decreases"},
      {"measurement": "ROS (H2O2) generation by PQ", "setting": "H2O2", "result": "meaningfully suppresses"},
      {"measurement": "content of pyruvate compared with a control", "setting": "pyruvate", "result": "high content of pyruvate"},
      {"measurement": "movement of worms", "setting": "C. elegans [3]", "result": "more strong active movement"},
      {"measurement": "biochemical activity of PK in vivo", "setting": "pyruvate kinase", "result": "suppresses"},
      {"measurement": "amount of SOD2", "setting": "SOD2", "result": "decreases"}
    ]}
  ]
}
